Where two headings read alike, the source gives them in different places.

For data set [1], the system named is tobacco cutworm (Spodoptera litura). Put plainly: Mortality of third-instar larvae of tobacco cutworm on cabbage (Test Example 1). Format: in vivo. The protocol:
Ten third-instar larvae of tobacco cutworm (Spodoptera litura) were placed on a cabbage (one-month-old seedling) planted in a pot, and a 50% emulsion of the compound to be tested was diluted to a specified concentration and applied to the leaves of the plant to fully wet them. The test compound of each specified concentration was tested on two pots.

Data set [2] concerns green rice leafhopper (Nephotettix cincticeps). Put plainly: Mortality of female adults of green rice leafhopper on paddy rice (Test Example 2). To be noted: 72 h. The format is in vivo. Here is the method: An emulsion of specified concentration was prepared from a 50% wettable powder of the compound to be tested and applied to the leaves of paddy rice (one-month-old seedlings) planted in a pot to fully wet the leaves. After the emulsion had been dried, the pot was covered with a net cage, into which 10 female adults of green rice leafhopper (Nephotettix cincticeps) were released. The compound of each specified concentration was tested on two pots.

Data set [3] has as its system house fly (Musca domestica). As to the kind of experiment: Local application to house fly, LD50 by Probit method (Test Example 4). The format is in vivo. The settings on record: topical, 24 h. The protocol:
The compound to be tested was dissolved in a predetermined amount of acetone. The solution was diluted to various concentrations and locally applied to house fly (Musca domestica).

A short description of data set [4]: Acute oral toxicity in male mice, LD50 by Litchfield-Wilcoxon method (Test Example 5). The settings on record: mouse, in vivo, mortality on the seventh day. The protocol:
Compounds of this invention were tested on male mice for acute toxicity by oral administration.

In data set [1] (72 h), `CCOC(=O)CN(SN(C)C(=O)Oc1cccc2c1OC(C)(C)C2)C1CCCCC1` [Example 18] gave a mortality at 500 ppm of 75%, a mortality at 1000 ppm of 90% and a mortality at 2000 ppm of 100%. In addition, in data set [2], the mortality at 200 ppm stood at 65%, the mortality at 400 ppm was found to be 90% and the mortality at 800 ppm was found to be 100%. Moreover, the LD50 in data set [3] was 32.5 mg/kg. The 50% lethal dose (LD50) at 168 h in data set [4] was found to be 135 mg/kg.

`CCOC(=O)CN(Cc1ccccc1)SN(C)C(=O)Oc1cccc2c1OC(C)(C)C2` [Example 19]: in data set [1] (72 h), the mortality at 500 ppm was determined as 65%, the mortality at 1000 ppm is 85% and the mortality at 2000 ppm was found to be 100%. In data set [2], this compound showed a mortality at 200 ppm of 60%, a mortality at 400 ppm of 80% and a mortality at 800 ppm of 100%. In data set [3], this compound showed an LD50 of 22.2 mg/kg. In addition, the LD50 at 168 h in data set [4] was determined as 108 mg/kg.

In data set [1] (72 h), `CCOC(=O)CN(Cc1ccc(Cl)cc1)SN(C)C(=O)Oc1cccc2c1OC(C)(C)C2` [Example 20] gave a mortality at 500 ppm of 65%, a mortality at 1000 ppm of 85% and a mortality at 2000 ppm of 100%. In data set [2], this compound yielded a mortality at 200 ppm of 60%, a mortality at 400 ppm of 80% and a mortality at 800 ppm of 100%. Also, in data set [3], the median lethal dose (LD50) was 61.9 mg/kg. In data set [4], the 50% lethal dose (LD50) at 168 h stood at 75 mg/kg.

In data set [1] (72 h), `CCOC(=O)CN(SN(C)C(=O)Oc1cccc2c1OC(C)(C)C2)c1cccc(C)c1` [Example 21] showed a mortality at 500 ppm of 75%, a mortality at 1000 ppm of 90% and a mortality at 2000 ppm of 100%. In data set [2], this compound registered a mortality at 200 ppm of 65%, a mortality at 400 ppm of 90% and a mortality at 800 ppm of 100%. The compound further yielded an LD50 in data set [3] of 10.4 mg/kg. In data set [4], the LD50 at 168 h turned out to be 105 mg/kg.

On to `CCOC(=O)CN(SN(C)C(=O)Oc1cccc2c1OC(C)(C)C2)c1ccc(OC)cc1` [Example 22], for which, in data set [1] (72 h), the mortality at 500 ppm came to 65%, the mortality at 1000 ppm was 85% and the mortality at 2000 ppm is 100%. Further, in data set [2], the mortality at 200 ppm was 60%, the mortality at 400 ppm came to 80% and the mortality at 800 ppm amounted to 100%. Besides, the median lethal dose (LD50) in data set [3] was 45.2 mg/kg. This compound showed an LD50 at 168 h in data set [4] of 88 mg/kg.

For `CCOC(=O)CCN(SN(C)C(=O)Oc1cccc2c1OC(C)(C)C2)C(C)C` [Example 23, 2,3-Dihydro-2,2-dimethylbenzofuran-7-yl N-(N-isopropyl-N-ethoxycarbonylethylaminosulfenyl)-N-methylcarbamate], the mortality at 500 ppm in data set [1] (72 h, 500 ppm active ingredient, 50% emulsion diluted, three days later, read-out: Mortality) came out at 70%. In addition, the mortality at 1000 ppm in data set [1] (72 h, 1,000 ppm active ingredient, 50% emulsion diluted, three days later, read-out: Mortality) worked out at 85%. Further, the mortality at 2000 ppm in data set [1] (72 h, 2,000 ppm active ingredient, 50% emulsion diluted, three days later, read-out: Mortality) is 100%. Also, the mortality at 200 ppm in data set [2] (200 ppm active ingredient, from 50% wettable powder, three days later, read-out: Mortality) turned out to be 55%. The mortality at 400 ppm in data set [2] (400 ppm active ingredient, from 50% wettable powder, three days later, read-out: Mortality) worked out at 85%. Further, the mortality at 800 ppm in data set [2] (800 ppm active ingredient, from 50% wettable powder, three days later, read-out: Mortality) was found to be 100%. The median lethal dose (LD50) in data set [3] turned out to be 44.3 mg/kg. This compound also showed a median lethal dose (LD50) at 168 h in data set [4] of 113 mg/kg.

Take `COC(=O)CCN(SN(C)C(=O)Oc1cccc2c1OC(C)(C)C2)C(C)C` [Example 24]: in data set [1] (72 h), the mortality at 500 ppm came out at 75%, the mortality at 1000 ppm was found to be 85% and the mortality at 2000 ppm was 100%. In data set [2], the mortality at 200 ppm worked out at 60%, the mortality at 400 ppm was found to be 90% and the mortality at 800 ppm worked out at 100%. The compound further displayed a 50% lethal dose (LD50) in data set [3] of 38.6 mg/kg. This compound also showed a median lethal dose (LD50) at 168 h in data set [4] of 77 mg/kg.

`CCCCOC(=O)CCN(SN(C)C(=O)Oc1cccc2c1OC(C)(C)C2)C(C)C` [Example 25]: in data set [1] (72 h), the mortality at 500 ppm stood at 75%, the mortality at 1000 ppm is 90% and the mortality at 2000 ppm was 100%. In data set [2], this compound had a mortality at 200 ppm of 65%, a mortality at 400 ppm of 90% and a mortality at 800 ppm of 100%. For the same compound, the LD50 in data set [3] amounted to 50.1 mg/kg. The compound further had an LD50 at 168 h in data set [4] of 123 mg/kg.

In data set [1] (72 h), `CCCCC(CC)COC(=O)CCN(SN(C)C(=O)Oc1cccc2c1OC(C)(C)C2)C(C)C` (stereo not drawn) [Example 26] returned a mortality at 500 ppm of 60%, a mortality at 1000 ppm of 80% and a mortality at 2000 ppm of 100%. In data set [2], this compound yielded a mortality at 200 ppm of 55%, a mortality at 400 ppm of 75% and a mortality at 800 ppm of 100%. Further, the 50% lethal dose (LD50) in data set [3] stood at 64.7 mg/kg. Further, the median lethal dose (LD50) at 168 h in data set [4] amounted to 150 mg/kg.

In data set [1] (72 h), `CCCCN(CCC(=O)OCC)SN(C)C(=O)Oc1cccc2c1OC(C)(C)C2` [Example 27, 2,3-Dihydro-2,2-dimethylbenzofuran-7-yl N-(N-n-butyl-N-ethoxycarbonylethylaminosulfenyl)-N-methylcarbamate] gave a mortality at 500 ppm of 75%, a mortality at 1000 ppm of 90% and a mortality at 2000 ppm of 100%. In data set [2], this compound came in with a mortality at 200 ppm of 65%, a mortality at 400 ppm of 90% and a mortality at 800 ppm of 100%. This compound also returned an LD50 in data set [3] of 13.8 mg/kg. This compound also registered an LD50 at 168 h in data set [4] of 105 mg/kg.

Regarding `CCCCN(CCC(=O)OC)SN(C)C(=O)Oc1cccc2c1OC(C)(C)C2` [Example 28], in data set [1] (72 h), the mortality at 500 ppm turned out to be 75%, the mortality at 1000 ppm worked out at 90% and the mortality at 2000 ppm came to 100%. In data set [2], this compound had a mortality at 200 ppm of 65%, a mortality at 400 ppm of 90% and a mortality at 800 ppm of 100%. The compound also yielded an LD50 in data set [3] of 17.7 mg/kg. Also, in data set [4], the LD50 at 168 h worked out at 89 mg/kg.

In data set [1] (72 h), `CCOC(=O)CCN(SN(C)C(=O)Oc1cccc2c1OC(C)(C)C2)C(C)CC` (stereo not drawn) [Example 29] came in with a mortality at 500 ppm of 60%, a mortality at 1000 ppm of 80% and a mortality at 2000 ppm of 100%. In data set [2], this compound showed a mortality at 200 ppm of 45%, a mortality at 400 ppm of 75% and a mortality at 800 ppm of 100%. The compound further came in with a median lethal dose (LD50) in data set [3] of 22.5 mg/kg. Moreover, the LD50 at 168 h in data set [4] amounted to 120 mg/kg.

As to `CCOC(=O)CCN(CC(C)C)SN(C)C(=O)Oc1cccc2c1OC(C)(C)C2` [Example 30], in data set [1] (72 h), the mortality at 500 ppm stood at 65%, the mortality at 1000 ppm is 85% and the mortality at 2000 ppm turned out to be 100%. Moreover, in data set [2], the mortality at 200 ppm is 60%, the mortality at 400 ppm turned out to be 80% and the mortality at 800 ppm was 100%. Besides, in data set [3], the LD50 is 23.8 mg/kg. In data set [4], this compound showed a median lethal dose (LD50) at 168 h of 133 mg/kg.

Regarding `CCCCCCN(CCC(=O)OCC)SN(C)C(=O)Oc1cccc2c1OC(C)(C)C2` [Example 31], in data set [1] (72 h), the mortality at 500 ppm was 60%, the mortality at 1000 ppm came to 80% and the mortality at 2000 ppm was determined as 100%. In addition, in data set [2], the mortality at 200 ppm was 55%, the mortality at 400 ppm turned out to be 75% and the mortality at 800 ppm turned out to be 100%. In data set [3], this compound gave a median lethal dose (LD50) of 33.1 mg/kg. This compound also gave an LD50 at 168 h in data set [4] of 135 mg/kg.

Consider `CCOC(=O)CCN(SN(C)C(=O)Oc1cccc2c1OC(C)(C)C2)C1CCCCC1` [Example 32, 2,3-Dihydro-2,2-dimethylbenzofuran-7-yl N-(N-cyclohexyl-N-ethoxycarbonylethylaminosulfenyl)-N-methylcarbamate], for which, in data set [1] (72 h), the mortality at 500 ppm was determined as 65%, the mortality at 1000 ppm was 80% and the mortality at 2000 ppm was found to be 100%. In data set [2], the mortality at 200 ppm came to 55%, the mortality at 400 ppm is 75% and the mortality at 800 ppm came to 100%. In addition, the LD50 in data set [3] worked out at 32.7 mg/kg. The median lethal dose (LD50) at 168 h in data set [4] is 107 mg/kg.
